Laboratory results from US4411908A, “Imidazoline derivatives as presynaptic α2 -adrenoreceptor antagonists” (priority 1981, dated 1983).
Structures can show the parent of a compound that is named as a salt. Where two headings read alike, the source gives them in different places. Each block holds one molecule with its values, some of them ahead of it.

How the values were obtained:
[1] = system: presynaptic α-adrenoreceptor (vas deferens, pithed rat); assay: Presynaptic α-adrenoreceptor antagonism in the pithed rat (reversal of clonidine block on vas deferens, i.v.); conditions: for i.v. dose of antagonist causing 50% reversal of clonidine block on vas deferens: Table 3, cumulative i.v. dosing, clonidine 100 μg/kg i.v., mean of a minimum of 4 rats
Procedure: The test drugs were injected intravenously in a cumulative dosing schedule and their abilities to reverse the inhibition of hypogastric nerve stimulation reflected their presynaptic antagonism.

[2] = target: T1, postsynaptic α-adrenoreceptor (rat anococcygeus muscle) (Rattus norvegicus, UniProt P43140); assay: Postsynaptic α-adrenoreceptor antagonism vs noradrenaline contractions, isolated rat anococcygeus muscle; type: cell-based
T1 construct: the rat anococcygeus muscle is used to establish postsynaptic α-adrenoreceptor activity; from tissue; host or cells: isolated rat anococcygeus muscle
T1 sequence (P43140 1-466): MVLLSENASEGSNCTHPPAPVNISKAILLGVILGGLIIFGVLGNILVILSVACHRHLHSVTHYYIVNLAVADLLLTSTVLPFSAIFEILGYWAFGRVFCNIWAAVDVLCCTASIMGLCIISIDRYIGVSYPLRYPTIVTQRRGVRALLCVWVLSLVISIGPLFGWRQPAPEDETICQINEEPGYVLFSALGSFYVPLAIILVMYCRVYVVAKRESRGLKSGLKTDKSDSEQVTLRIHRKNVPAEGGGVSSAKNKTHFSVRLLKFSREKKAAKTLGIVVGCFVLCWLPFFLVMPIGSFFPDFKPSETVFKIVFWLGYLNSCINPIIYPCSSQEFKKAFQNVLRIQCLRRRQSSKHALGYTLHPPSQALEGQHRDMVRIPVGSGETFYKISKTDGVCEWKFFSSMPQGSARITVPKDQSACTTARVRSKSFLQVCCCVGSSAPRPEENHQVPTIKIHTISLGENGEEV
Excerpt: This in vitro model is particularly useful as an initial screen for studying presynaptic activity in isolation since the physiological nature of the vas deferens tissue is such that the postsynaptic receptors located therein are particularly inaccessible to exogenous agents. In consequence an alternative tissue, the rat anococcygeus muscle is used to establish postsynaptic α-adrenoreceptor activity. Antagonism of noradrenaline contractions is used to determine pA2 values at postsynaptic α-adrenoreceptors.

[3] = target: T2, presynaptic α2-adrenoreceptor (rat vas deferens) (Rattus norvegicus, UniProt P22909); assay: Presynaptic α-adrenoreceptor antagonism vs clonidine, isolated rat vas deferens (0.1 Hz stimulation); type: cell-based
T2 construct: on the rat vas deferens stimulated at a frequency of 0.1 Hz; from tissue; host or cells: isolated rat vas deferens
T2 sequence (P22909 1-465): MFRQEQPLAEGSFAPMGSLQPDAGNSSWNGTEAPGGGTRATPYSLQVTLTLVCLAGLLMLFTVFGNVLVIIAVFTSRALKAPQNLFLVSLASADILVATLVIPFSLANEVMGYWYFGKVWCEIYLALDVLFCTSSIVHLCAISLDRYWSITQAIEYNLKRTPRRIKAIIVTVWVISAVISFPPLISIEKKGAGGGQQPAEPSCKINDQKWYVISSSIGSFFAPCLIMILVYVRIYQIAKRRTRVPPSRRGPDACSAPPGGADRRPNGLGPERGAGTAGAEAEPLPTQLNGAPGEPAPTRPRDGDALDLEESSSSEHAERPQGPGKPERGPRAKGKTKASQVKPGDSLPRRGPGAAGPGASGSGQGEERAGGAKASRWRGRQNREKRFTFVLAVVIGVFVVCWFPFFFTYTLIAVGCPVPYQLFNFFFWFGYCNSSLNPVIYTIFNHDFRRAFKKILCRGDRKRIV

[4] = system: postsynaptic α-adrenoreceptor (pithed rat); assay: Postsynaptic α-adrenoreceptor agonist activity in the pithed rat (diastolic blood pressure); conditions: for i.v. dose causing 50 mmHg increase in diastolic blood pressure: Table 5, naive pithed rats
Procedure: In vivo presynaptic α-adrenoreceptor antagonist activity was determined using the methods outlined in section 2.

[5] = target: T3, postsynaptic α-adrenoreceptor (anococcygeus muscle) (Rattus norvegicus, UniProt P43140); assay: Postsynaptic α-adrenoreceptor agonist activity, isolated anococcygeus muscle; type: cell-based; conditions: Table 4; negative log of molar concentration giving 50% maximum contraction; mean of a minimum of 3 experiments; read-out: Postsynaptic agonism pD2 (anococcygeus) (converted)
T3 construct: compound giving 50% maximum contraction in this instance, of the anococcygeus muscle; from tissue; host or cells: isolated anococcygeus muscle (rat)
T3 sequence (P43140 1-466): T1 sequence (P43140 1-466)

Structure (SMILES): CN1CCN2c3ccccc3Cc3ccccc3C2C1 (stereo not drawn) [Mianserin, reference compound]
maximum reversal of the inhibitory effects of clonidine on hypogastric nerve stimulation ([1]; cumulative intravenous dose of 4.4 mg/kg): 36%

Structure (SMILES): Cc1ccc(N(CC2=NCCN2)c2cccc(O)c2)cc1 [Phentolamine mesylate, reference compound]
i.v. dose of antagonist causing 50% reversal of clonidine block on vas deferens [1]: 0.12 mg/kg

Kb ([2]; Table 4, rat anococcygeus muscle, read-out: postsynaptic antagonist pA2 (rat anococcygeus muscle) (converted)): 5750 nM
Kb ([3]; Table 4, isolated rat vas deferens, mean of a minimum of 3 experiments): 832 nM
Structure (SMILES): c1ccc2oc(C3=NCCN3)cc2c1 [Compound A, 2-(2-benzofuranyl)-2-imidazoline, reference compound]

Structure (SMILES): CN1CCN2c3ccccc3Cc3ccccc3C2C1 (stereo not drawn) [Mianserin HCl, reference compound]
i.v. dose of antagonist causing 50% reversal of clonidine block on vas deferens [1]: > 4.4 mg/kg

Structure (SMILES): CNC[C@H](O)c1cccc(O)c1 [Phenylephrine, reference compound]
i.v. dose causing 50 mmHg increase in diastolic blood pressure [4]: 0.030 mg/kg

Structure (SMILES): COC(=O)[C@@H]1[C@H]2C[C@H]3c4[nH]c5ccccc5c4CCN3C[C@@H]2CC[C@@H]1O [Yohimbine HCl, reference compound]
i.v. dose of antagonist causing 50% reversal of clonidine block on vas deferens [1]: 0.86 mg/kg

Structure (SMILES): Clc1ccc2c(c1)CC(C1=NCCN1)O2 (stereo not drawn) [Example 5, 2-[2-(5-chloro-2,3-dihydrobenzofuranyl)]-2-imidazoline hydrochloride]
i.v. dose of antagonist causing 50% reversal of clonidine block on vas deferens [1]: 0.102 mg/kg
relative potency against in vivo presynaptic α-adrenoreceptor stimulant effects of clonidine ([1]; compound of Example 5 compared with phentolamine): approximately equipotent
potency relative to yohimbine in pithed rats ([1]; vs yohimbine, i.v. (Table 3)): approximately 8 times
Kb ([2]; Table 2, isolated rat anococcygeus, mean of a minimum of 5 experiments, read-out: Postsynaptic antagonism pA2 vs Noradrenaline (anococcygeus) (converted)): 631 nM
Kb [3]: 6.31 nM
Pre/post synaptic ratio ([3]; antagonism vs clonidine (rat vas deferens) to antagonism vs noradrenaline (rat anococcygeus)): 100

Structure (SMILES): c1ccc2c(c1)CC(C1=NCCN1)O2 (stereo not drawn) [Example 6, 2-[2-(2,3-dihydrobenzofuranyl)]-2-imidazoline hydrochloride]
i.v. dose causing 50% reversal of clonidine block on vas deferens ([1]; Table 5): 0.030 mg/kg
EC50 [5]: 501 nM
Kb [3]: 3.16 nM
presynaptic α-adrenoreceptor antagonist properties ([3]; qualitative, b182: in both isolated tissues and intact animals): displays presynaptic α-adrenoreceptor antagonist properties
potency as presynaptic α2 antagonist relative to the analogous dehydro compound ([3]; vs dehydro compound (Compound A), isolated vas deferens): more than 200 times
i.v. dose causing 50 mmHg increase in diastolic blood pressure [4]: 0.020 mg/kg
potency as postsynaptic α-adrenoreceptor agonist relative to phenylephrine ([4]; vs phenylephrine, conclusion of section 4): slightly more potent than phenylephrine

Structure (SMILES): Clc1cccc(Cl)c1N=C1NCCN1 [Clonidine, reference compound]
i.v. dose causing 50 mmHg increase in diastolic blood pressure [4]: 0.003 mg/kg
